Consider one compound from patent US20070280915A1, “Combination Therapies Employing A Composition Comprising A Hmg Coa Reductase Inhibitor And A Vitamin B6 Related Compound” (priority 2003, published 2007).

Like-named read-outs stand apart in the source and are kept apart here.

By IC50 is commonly meant the concentration that inhibits the measured activity by half.

Data set [1] deals with T1, CYP2A6 (Homo sapiens, UniProt P11509).
T1 sequence (P11509 1-494): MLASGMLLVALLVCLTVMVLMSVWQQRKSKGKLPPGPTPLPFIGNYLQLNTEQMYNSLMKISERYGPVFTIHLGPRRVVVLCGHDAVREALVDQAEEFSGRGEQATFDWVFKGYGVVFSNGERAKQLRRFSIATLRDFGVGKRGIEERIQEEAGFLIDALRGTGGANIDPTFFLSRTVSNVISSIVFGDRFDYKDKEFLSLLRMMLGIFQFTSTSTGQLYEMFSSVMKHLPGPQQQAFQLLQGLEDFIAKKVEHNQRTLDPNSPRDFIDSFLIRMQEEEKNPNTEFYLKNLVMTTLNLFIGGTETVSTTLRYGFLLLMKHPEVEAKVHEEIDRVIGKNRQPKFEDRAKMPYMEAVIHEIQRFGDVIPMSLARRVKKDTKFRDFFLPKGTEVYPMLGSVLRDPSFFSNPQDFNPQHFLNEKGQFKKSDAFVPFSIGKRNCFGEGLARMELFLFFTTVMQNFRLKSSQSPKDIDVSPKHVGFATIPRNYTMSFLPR
As to the kind of experiment: CYP2A6 inhibition assay (substrate coumarin). The conditions noted are these: 0.0169 to […] tested, na = concentration-dependent inhibition not observed. The text has this: (§1) The CYP inhibition assays used microsomes (Supersomes®, Gentest Corp., Woburn, Mass.) prepared from insect cells, each expressing an individual CYP subtype (CYP1A2, CYP2A6, CYP2B6, CYP2C8, CYP2C9, CYP2C19, CYP2D6, CYP2E1 or CYP3A4) expressed from the corresponding human CYP cDNA using a baculovirus expression vector. The microsomes also incorporated supplemental cDNA-expressed human reductase and/or cytochrome b5, as these enzymes stimulate the activity of the CYPs, allowing for a reduction in the amount of enzyme required per reaction (Gentest Corp.). The assays monitored, via fluorescence detection, the formation of a fluorescent metabolite following incubation of the microsomes with a specific CYP substrate. […] Reactions (0.2 mL) were performed in 96-well microtitre plates at 37° C. in the presence of an NADPH regenerating system [NADP+, glucose-6-phosphate (G6P), glucose-6-phosphate dehydrogenase (G6PDH)] and MgCl2. […] All determinations were performed in duplicate. The reagent solutions used for all of the CYP subtype assays, except CYP2C19 and CYP3A4, were prepared by MBDI. For CYP2C19 and CYP3A4, complete reagent kits purchased from Gentest Corp. (CYP2C19/CEC: Cat. No. HTS-4000, Lot No. 1; CYP3A4/BFC: Cat. No. HTS-1000, Lot No. 1) were used to perform the assays.
(§2) Eight inhibitor and test compound concentrations were tested using 3-fold serial dilutions. The microtitre plates containing 0.1 mL/well of the latter mixture were pre-warmed to 37° C. in an incubator. […] The amount of metabolic product formed was quantified by fluorescence detection in a fluorescence plate reader utilizing excitation and emission filters that had been optimized for the detection of each metabolite.
(§3) Data Analysis—The mean of the duplicate fluorescent signals in the presence and absence (vehicle control) of each compound was calculated and corrected for the background noise. Percent inhibition was calculated as the difference in the corrected fluorescent signals in the absence and presence of the compound, divided by the corrected fluorescent signal in the absence of compound, multiplied by 100%.

The target in data set [2] is CYP3A4 (Homo sapiens, UniProt P08684). Description: CYP3A4 inhibition assay (substrates BFC and BQ). The text has this: (§4) The CYP inhibition assays used microsomes (Supersomes®, Gentest Corp., Woburn, Mass.) prepared from insect cells, each expressing an individual CYP subtype (CYP1A2, CYP2A6, CYP2B6, CYP2C8, CYP2C9, CYP2C19, CYP2D6, CYP2E1 or CYP3A4) expressed from the corresponding human CYP cDNA using a baculovirus expression vector. The microsomes also incorporated supplemental cDNA-expressed human reductase and/or cytochrome b5, as these enzymes stimulate the activity of the CYPs, allowing for a reduction in the amount of enzyme required per reaction (Gentest Corp.). The assays monitored, via fluorescence detection, the formation of a fluorescent metabolite following incubation of the microsomes with a specific CYP substrate. […]
(§5) Eight inhibitor and test compound concentrations were tested using 3-fold serial dilutions. […] The amount of metabolic product formed was quantified by fluorescence detection in a fluorescence plate reader utilizing excitation and emission filters that had been optimized for the detection of each metabolite.
(§6) Data Analysis—The mean of the duplicate fluorescent signals in the presence and absence (vehicle control) of each compound was calculated and corrected for the background noise. […]

For data set [3], the target named is CYP2C19 (Homo sapiens, UniProt P33261). Description: CYP2C19 inhibition assay (substrate CEC). Particulars: read-out: Pyridoxal 5′-phosphate IC50, 0.0169 to […] tested, listed as pyridoxal 5′-phosphate.
Text: as §4, §5, §6

The target of data set [4] is T2, CYP2C8 (Homo sapiens, UniProt P10632).
T2 sequence (P10632 1-490): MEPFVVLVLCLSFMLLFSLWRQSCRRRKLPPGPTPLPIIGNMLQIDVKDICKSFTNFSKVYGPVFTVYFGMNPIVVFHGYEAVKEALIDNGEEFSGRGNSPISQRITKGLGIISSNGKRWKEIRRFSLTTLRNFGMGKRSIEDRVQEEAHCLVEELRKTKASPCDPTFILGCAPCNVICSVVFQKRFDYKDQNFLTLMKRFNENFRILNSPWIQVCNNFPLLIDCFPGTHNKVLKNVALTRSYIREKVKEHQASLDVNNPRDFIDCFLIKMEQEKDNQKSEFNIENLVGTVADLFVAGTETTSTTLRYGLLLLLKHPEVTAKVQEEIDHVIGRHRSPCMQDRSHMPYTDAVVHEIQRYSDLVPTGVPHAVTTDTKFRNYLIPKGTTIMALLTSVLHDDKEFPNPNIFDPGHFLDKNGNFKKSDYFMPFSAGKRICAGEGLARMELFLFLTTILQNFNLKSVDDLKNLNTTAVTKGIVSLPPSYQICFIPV
Description: CYP2C8 inhibition assay (substrate DBF). The conditions noted are these: 0.0169 to […] tested, na = concentration-dependent inhibition not observed.
Text: as §4, §5, §6

The target of data set [5] is T3, CYP2B6 (Homo sapiens, UniProt P20813).
T3 sequence (P20813 1-491): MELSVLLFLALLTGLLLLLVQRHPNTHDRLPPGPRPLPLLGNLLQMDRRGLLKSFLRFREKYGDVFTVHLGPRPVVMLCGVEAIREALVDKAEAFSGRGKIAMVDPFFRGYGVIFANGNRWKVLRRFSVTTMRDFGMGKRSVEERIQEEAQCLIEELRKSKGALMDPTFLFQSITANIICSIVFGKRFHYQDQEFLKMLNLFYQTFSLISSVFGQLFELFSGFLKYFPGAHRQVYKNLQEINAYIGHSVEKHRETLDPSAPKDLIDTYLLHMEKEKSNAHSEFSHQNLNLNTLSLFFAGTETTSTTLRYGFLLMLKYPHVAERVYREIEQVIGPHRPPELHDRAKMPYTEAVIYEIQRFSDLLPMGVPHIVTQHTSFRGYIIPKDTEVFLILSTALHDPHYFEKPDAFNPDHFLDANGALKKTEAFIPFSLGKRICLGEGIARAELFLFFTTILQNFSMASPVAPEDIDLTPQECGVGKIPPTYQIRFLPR
As to the kind of experiment: CYP2B6 inhibition assay (substrate EFC). Particulars: 0.0169 to […] tested, na = concentration-dependent inhibition not observed.
Text: as §1, §2, §3

Chain of CYP3A4 (P08684 whole entry): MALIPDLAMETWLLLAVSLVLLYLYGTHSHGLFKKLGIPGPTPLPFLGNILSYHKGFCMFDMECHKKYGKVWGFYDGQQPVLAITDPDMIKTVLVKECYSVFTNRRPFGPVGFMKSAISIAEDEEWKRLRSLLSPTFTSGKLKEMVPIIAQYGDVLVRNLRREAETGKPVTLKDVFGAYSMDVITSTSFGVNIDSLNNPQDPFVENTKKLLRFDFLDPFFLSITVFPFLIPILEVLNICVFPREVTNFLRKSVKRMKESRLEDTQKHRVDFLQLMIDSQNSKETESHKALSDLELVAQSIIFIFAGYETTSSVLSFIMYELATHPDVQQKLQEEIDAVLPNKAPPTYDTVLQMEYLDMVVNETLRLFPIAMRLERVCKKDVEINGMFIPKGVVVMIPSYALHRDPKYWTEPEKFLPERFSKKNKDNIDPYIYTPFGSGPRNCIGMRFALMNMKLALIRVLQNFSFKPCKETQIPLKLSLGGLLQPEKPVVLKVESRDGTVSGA
Chain of CYP2C19 (P33261 whole entry): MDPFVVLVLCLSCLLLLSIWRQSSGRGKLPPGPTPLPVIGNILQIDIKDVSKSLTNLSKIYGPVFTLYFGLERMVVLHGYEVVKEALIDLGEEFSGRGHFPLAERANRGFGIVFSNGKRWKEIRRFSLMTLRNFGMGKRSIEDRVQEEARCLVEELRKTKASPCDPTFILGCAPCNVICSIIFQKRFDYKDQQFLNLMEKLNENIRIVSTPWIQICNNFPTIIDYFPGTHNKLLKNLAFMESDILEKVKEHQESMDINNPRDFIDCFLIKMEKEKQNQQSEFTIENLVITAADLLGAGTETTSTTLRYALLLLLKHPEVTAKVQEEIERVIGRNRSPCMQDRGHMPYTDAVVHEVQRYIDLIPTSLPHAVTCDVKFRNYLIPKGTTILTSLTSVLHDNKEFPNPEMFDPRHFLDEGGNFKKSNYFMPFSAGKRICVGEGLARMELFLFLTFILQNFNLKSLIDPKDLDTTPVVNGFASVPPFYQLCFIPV

With `Cc1ncc(COP(=O)(O)O)c(C=O)c1O` [P5P, pyridoxal-5-phosphate], the “Pyridoxal 5′-phosphate IC50” value in data set [1], in data set [4] and in data set [5] was “did not inhibit” each time. For the same compound, the IC50 in data set [2] (read-out: Pyridoxal 5′-phosphate IC50, CYP3A4, substrate BQ, 0.0169 to […] tested) is over 37 µM; in data set [2] (read-out: Pyridoxal 5′-phosphate IC50 for CYP3A4, CYP3A4, substrate not given), at least 37 µM; in data set [3] it was about 33 µM.
